Patent US7067632B2, “VP22 proteins and uses thereof” (priority 1997, dated 2006)

Columns and labels:
Assay type in all cases: cell-based
[1] = test system: cellular microtubules (MTs) in COS 1 cells; assay: Double immunofluorescence (anti-VP22, anti alpha tubulin) of COS 1 cells expressing VP22: co-localisation with and bundling of microtubules
Excerpt: To investigate the possibility that the pattern of localisation in cells expressing VP22 represents co-localisation with a component of the cytoskeleton, COS 1 cells were transfected with the VP22 expression plasmid pGE109. Forty hours after transfection, the cells were fixed with 100% methanol and double immunofluorescence carried out with antibodies against VP22 (polyclonal AGV30) and alpha tubulin (monoclonal anti alpha tubulin, Sigma).
COS 1 cells treated in the same manner were exposed to the MT stabilising drug taxol (10 microM) for 30 minutes prior to fixation. […] The MT binding property of VP22 can also be used to deliver coupling products between VP22 and other substances, such as taxol or a related compound to MTs.

[2] = test system: cellular microtubules (MTs) in COS 1 cells; assay: VP22 deletion mutants transfected into COS 1 cells, immunofluorescence with anti VP22 antibody AGV30: MT bundling and movement between cells; details: transfected COS 1 cells
Excerpt: To broadly identify the region of VP22 involved in MT interaction, we utilised a range of C terminal deletion mutants of the protein. The plasmids encoding WT, del-267, del-192 and del-119 (FIG. 3a) forms of VP22 were transfected into COS 1 cells and analysed by immunofluorescence using the anti VP22 antibody AGV30. The del-267 and del-119 constructs comprise respectively aminoacids 1–267 inclusive, and aminoacids 1–119 inclusive of the wild type sequence of VP22 of HSV1 as disclosed in above-cited WO 97/05265 and references cited therein. The del-192 construct consists of aminoacids 1–191 inclusive plus a residue 192 mutated to leucine.
In these examples the longer sequences have increasing efficiency.

[3] = test system: cellular microtubules (MTs) in COS 1 cells
[4] = test system: acetylated form of tubulin; assay: Acetylation of MTs: colocalisation immunofluorescence and Western blot with monoclonal antibody specific for acetylated tubulin
Excerpt: Acetylation of MTs was previously reported as a marker for MT stability (Piperno et al, J Cell Biol 104 (1987) 289–302). This has been shown by use of monoclonal antibody specific for the acetylated form of tubulin (obtainable from Sigma Chemical), in colocalisation assays by immunofluorescence, and by Western blot assays. This effect can be used as a biochemical marker for analysing and quantitating the level of MT stabilisation induced by VP22 or a variant or derviative thereof.

In the case of CC(=O)O[C@H]1C(=O)[C@@]2(C)[C@H]([C@H](OC(=O)c3ccccc3)[C@]3(O)C[C@H](OC(=O)[C@H](O)[C@@H](NC(=O)c4ccccc4)c4ccccc4)C(C)=C1C3(C)C)[C@]1(OC(C)=O)CO[C@@H]1C[C@@H]2O [taxol, reference compound], the “Effect on MTs in untransfected cells” value ([1]; untransfected COS 1 cells, taxol 10 microM, 30 minutes prior to fixation) is reported as “creating large bundles of MTs”.
With “1–172: variant VP22 protein consisting of residues 1–172 of the native VP22 of HSV1” the “MT bundling / cytoplasmic filament formation by VP22 forms” value [2] was “retain in some degree the ability to bundle microtubules”.
In the case of “1–159: VP22 fragment consisting of residues 1–159”, the “MT bundling / cytoplasmic filament formation by VP22 forms” value [2] is reported as “did not appear to retain the MT-bundling activity”.
In the case of COC(=O)Nc1nc2ccc(C(=O)c3cccs3)cc2[nH]1 [Nocodazole, nocodazole, reference compound], the “Effect of nocodazole on the MT network of untransfected cells” value [3] is reported as “depolymerisation of the MT network”.
With “VP22: product of the herpes simplex virus type 1 (HSV 1) UL49 gene, the structural tegument protein VP22, 32 kD” the “Co-localisation with and bundling of the cellular MT network” value ([1]; COS 1 cells transfected with pGE109, fixed 40 h after transfection) was “colocalises and reorganises the cellular MT network into bundles”, the “MT bundles in VP22 expressing cells exposed to taxol” value ([1]; VP22 expressing COS 1 cells plus taxol 10 microM, 30 minutes) was “these bundles were even more striking and again co-localised with VP22” and the “Stabilisation of MTs against nocodazole depolymerisation” value ([3]; VP22 expressing COS 1 cells, nocodazole 500 ng/ml, 30 minutes) was “does not depolymerise the MTs”. For the same compound, the “Stabilisation of MTs against depolymerisation by cold” value ([3]; incubation of cells at 4 deg C) was “stabilised MTs against depolymerisation by 4 deg C. incubation”, the “Acetylation of MTs (marker for MT stability)” value [4] was “associated with acetylation of the MTs” and the “MT bundling / cytoplasmic filament formation by VP22 forms” value [2] was “VP22 in cytoplasmic filaments”. For the same compound, the “Movement of the protein between cells (transport)” value [2] was “surrounded by cells with VP22 in their nuclei”.
